What is called IC50 is the concentration at which inhibition is half-maximal.

One assay concerns the target T1, recombinant human tissue transglutaminase 2 (TG2) (Homo sapiens, UniProt P21980).
T1 construct: 6xHis; made in house; host or cells: E. coli BL21
T1 sequence (P21980 1-687): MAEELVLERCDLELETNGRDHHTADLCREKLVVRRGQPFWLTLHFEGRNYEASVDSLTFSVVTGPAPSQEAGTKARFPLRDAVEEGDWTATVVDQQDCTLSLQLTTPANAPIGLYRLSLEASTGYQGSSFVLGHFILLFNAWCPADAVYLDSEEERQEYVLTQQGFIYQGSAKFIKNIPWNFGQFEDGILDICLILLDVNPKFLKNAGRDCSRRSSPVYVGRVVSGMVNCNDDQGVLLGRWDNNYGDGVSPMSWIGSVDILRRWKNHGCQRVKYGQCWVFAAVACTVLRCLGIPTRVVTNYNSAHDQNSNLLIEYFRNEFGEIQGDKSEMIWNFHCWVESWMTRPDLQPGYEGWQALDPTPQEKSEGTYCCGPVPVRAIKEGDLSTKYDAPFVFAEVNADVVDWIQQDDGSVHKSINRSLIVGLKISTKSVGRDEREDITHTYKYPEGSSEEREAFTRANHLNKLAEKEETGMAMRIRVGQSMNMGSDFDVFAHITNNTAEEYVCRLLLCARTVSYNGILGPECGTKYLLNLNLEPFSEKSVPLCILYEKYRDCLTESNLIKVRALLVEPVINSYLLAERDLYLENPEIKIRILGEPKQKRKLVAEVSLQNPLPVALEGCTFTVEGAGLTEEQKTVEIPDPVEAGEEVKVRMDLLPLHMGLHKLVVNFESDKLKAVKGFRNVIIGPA
Briefly: TG2 deamidation assay (GDH-coupled fluorescent NADH assay, Z-Gln-Gly substrate). As to conditions: fluorescent NADH-based deamidation assay; from log(concentration)-response relationships; read-out: IC50 for inhibition of TG2. The assay is classed as biochemical. The protocol: The illustrative compounds of the invention described above were tested in a TG2 assay with recombinant human tissue transglutaminase, as described in the Examples. […] It should be noted that, although […] inhibition is observed upon addition of these compounds, this observation may result from the ability of some inhibitors to bind to the GTP binding site of TG2. […] Thus, it follows that pharmacologically useful inhibitors of TG2 could be identified based on their ability to bind to either the enzyme active site or the GTP binding site. Purification of recombinant human TG2. […] The enzyme was isolated from cell lysates using nickel affinity chromatography. Following a buffer exchange, TG2 was purified further by ion-exchange (HiTrap-Q) chromatography using an Akta-FPLC system (Amersham Biosciences). […] Assays of tissue transglutaminase activity. The transamidation activity of TG2 was measured as described by Slaughter, et al. Anal Biochem, 1992. 205(1): p. 166-71. Briefly, 96-well Maxisorp plates (Nunc, Inc.) were coated with […] N′—N′-dimethylated casein overnight at 4° C. […] The deamidation activity of TG2 was measured essentially as described previously (Piper, et al. Biochemistry, 2002. 41(1): p. 386-93). […] TG2-catalyzed production of ammonium ions was monitored through the coupled oxidation of NADH by GDH. NADH levels were monitored by fluorescence (excitation: 341 nm; emission 451 nm) and were standardized with known amounts of NADH. During enzymatic reactions, NADH levels were monitored kinetically using a Fluoroskan II (Labsystems, Inc.) 96-well plate reader and a lag time of four minutes. These values were determined through analysis of the log(concentration)-response relationships.
With `O=C(CSc1nnc2c(n1)[nH]c1ccc(F)cc12)OC1CCCCC1` [CSRF-2, (6-fluoro-9H-1,3,4,9-tetraaza-fluoren-2-ylsulfanyl)-acetic acid cyclohexyl ester], the IC50 worked out at 36 µM.
The same measure, in the same setting: next, `Cc1cccc(NC(=S)N(Cc2cc3ccc(C)c(C)c3[nH]c2=O)CC2CCCO2)c1` (stereo not shown) [CSRF-3, 1-(7,8-dimethyl-2-oxo-1,2-dihydro-quinolin-3-ylmethyl)-1-(tetrahydrofuran-2-ylmethyl)-3-m-tolyl-thiourea]: 30 µM; `O=C(CN1C(=O)C(=O)c2ccccc21)Nc1ccc(N2CCN(C(=O)c3cccs3)CC2)cc1` [CSRF-6, 2-(2,3-dioxo-2,3-dihydro-indol-1-yl)-N-{4-[4-(thiophene-2-carbonyl)-piperazin-1-yl]-phenyl}-acetamide]: 17 µM; `O=C(CN1C(=O)C(=O)c2cc(Br)ccc21)NCC1CC1` [CSRF-7, 2-(5-bromo-2,3-dioxo-2,3-dihydro-indol-1-yl)-N-cyclopropylmethyl-acetamide]: 30 µM.
Still for that read-out and setting: next, `Cc1ccc2c(c1)C(=O)C(=O)N2CC(=O)Nc1ccc(S(=O)(=O)NCC2CCCO2)cc1` (stereo not shown) [CSRF-8]: 150 µM; `O=C(NNC(=O)C1=NOC(CNc2ncc(C(F)(F)F)cc2Cl)C1)Nc1ccc(Cl)cc1` (stereo not shown) [CSRF-13, 1-(4-chloro-phenyl)-3-(2-{5-[3-chloro-5-trifluoromethyl-pyridin-2-ylamino)-methyl]-4,5-dihydro-isoxazol-3-yl}-carboxamido-N-urea]: 250 µM; `O=C1Nc2ccc(Cc3ccc4c(c3)C(=O)C(=O)N4)cc2C1=O` [CSRF-14, 1,1-di-(1H-indole-2,3-dione-5-yl)-methane]: 16 µM.
The same measure, in the same setting: the value for `CCN1C(=O)c2cccc3c(NC(=O)CSc4ccc5ccccc5n4)ccc1c23` [CSRF-17] was 200 µM.
Turning to `O=C1Nc2ccc(Oc3ccc4c(c3)C(=O)C(=O)N4)cc2C1=O` [CSRF-18, di-(1H-indole-2,3-dione-5-yl)-ether], the IC50 stood at 23 µM.
Regarding `O=C1C(=O)N(C(=O)NC2CCCCC2)c2ccc(Br)cc21` [CSRF-20, 5-bromo-2,3-dioxo-2,3-dihydro-indole-1-carboxylic acid cyclohexylamide], the IC50 was found to be 110 µM.
Same read-out and setting: next, `CC1=CC(C)(C)N2C(=O)C(=O)c3cc(OC(=O)C4CCCO4)cc1c32` (stereo not shown) [CSRF-24, tetrahydrofuran-2-carboxylic acid 4,4,6-trimethyl-1,2-dioxo-1,2-dihydro-4H-pyrrolo[3,2,1-ij]quinolin-8-yl ester]: 450 µM.

The target in another assay is T1, recombinant human tissue transglutaminase 2 (TG2). Briefly: TG2 transamidation assay (5-(biotinamido)pentylamine incorporation into dimethylated casein). The assay is classed as biochemical.
Settings: not given
From the text: Purification of recombinant human TG2. TG2 was purified from eight 1 L cultures of the BL21 strain of E. coli expressing a plasmid encoding recombinant, 6×-His tagged human tissue transglutaminase 2 (TG2). The enzyme was isolated from cell lysates using nickel affinity chromatography. Following a buffer exchange, TG2 was purified further by ion-exchange (HiTrap-Q) chromatography using an Akta-FPLC system (Amersham Biosciences). Fractions containing purified TG2 were pooled, exchanged into low salt buffer (20 mM Tris-Cl, 1 mM EDTA, 1 mM DTT, pH 7.2), supplemented with 10% glycerol, flash frozen in 100 μL aliquots and stored at −80° C.
Assays of tissue transglutaminase activity. The transamidation activity of TG2 was measured as described by Slaughter, et al. Anal Biochem, 1992. […] 5-BP incorporated by TG2 was visualized by binding of a streptavidin-alkaline phosphatase conjugate (Sigma) and kinetic measurement of the dephosphorylation of pNPP was monitored at 410 nm using a ThermoMax microplate reader (Molecular Devices). The deamidation activity of TG2 was measured essentially as described previously (Piper, et al. Biochemistry, 2002. 41(1): p. 386-93). […] TG2-catalyzed production of ammonium ions was monitored through the coupled oxidation of NADH by GDH. NADH levels were monitored by fluorescence (excitation: 341 nm; emission 451 nm) and were standardized with known amounts of NADH. […]
In the case of `O=C1NC(=O)N(c2cccc(Cl)c2)C(=O)/C1=N/c1ccc(Cl)c(CN2C(=O)c3ccccc3C2=O)c1` [CSRF-21, 5-[4-Chloro-3-(1,3-dioxo-1,3-dihydro-isoindol-2-ylmethyl)-phenylimino]-1-(3-chloro-phenyl)-pyrimidine-2,4,6-trione], the IC50 is 10 µM.

The test system of another assay is neurologic cancer.
Test: not given
As to conditions: at concentrations of 12.5-50 mg/kg; cited from earlier work.
Take `O=C(N[C@@H](Cc1ccc(O)cc1)C(=O)NCC1CC(Br)=NO1)OCc1ccccc1` (stereo partly shown) [KCC009]: the “activity in a mouse model for neurologic cancer” value was “active”.

Source of the values: patent publication US20090220554A1, “Transglutaminase Inhibitors and Methods of Use Thereof” (priority 2005, published 2009).
